Laboratory results reported in article PMC5972072 (Bioorganic chemistry, 2018).
Entries after “also recorded” stand apart in the source; their conditions may differ.

Columns and labels:
haspin kinase [1] = biological target: T1, haspin kinase (Homo sapiens, UniProt Q8TF76); assay: Haspin kinase activity, ADP-Glo kinase assay, single concentration; format: biochemical; settings: for haspin inhibition (in words): 100 nM compound, 3 h, Figure 2; for inhibition at 0.1 µM: read-out: inhibition of haspin's enzymatic activity
T1 sequence (Q8TF76 1-798): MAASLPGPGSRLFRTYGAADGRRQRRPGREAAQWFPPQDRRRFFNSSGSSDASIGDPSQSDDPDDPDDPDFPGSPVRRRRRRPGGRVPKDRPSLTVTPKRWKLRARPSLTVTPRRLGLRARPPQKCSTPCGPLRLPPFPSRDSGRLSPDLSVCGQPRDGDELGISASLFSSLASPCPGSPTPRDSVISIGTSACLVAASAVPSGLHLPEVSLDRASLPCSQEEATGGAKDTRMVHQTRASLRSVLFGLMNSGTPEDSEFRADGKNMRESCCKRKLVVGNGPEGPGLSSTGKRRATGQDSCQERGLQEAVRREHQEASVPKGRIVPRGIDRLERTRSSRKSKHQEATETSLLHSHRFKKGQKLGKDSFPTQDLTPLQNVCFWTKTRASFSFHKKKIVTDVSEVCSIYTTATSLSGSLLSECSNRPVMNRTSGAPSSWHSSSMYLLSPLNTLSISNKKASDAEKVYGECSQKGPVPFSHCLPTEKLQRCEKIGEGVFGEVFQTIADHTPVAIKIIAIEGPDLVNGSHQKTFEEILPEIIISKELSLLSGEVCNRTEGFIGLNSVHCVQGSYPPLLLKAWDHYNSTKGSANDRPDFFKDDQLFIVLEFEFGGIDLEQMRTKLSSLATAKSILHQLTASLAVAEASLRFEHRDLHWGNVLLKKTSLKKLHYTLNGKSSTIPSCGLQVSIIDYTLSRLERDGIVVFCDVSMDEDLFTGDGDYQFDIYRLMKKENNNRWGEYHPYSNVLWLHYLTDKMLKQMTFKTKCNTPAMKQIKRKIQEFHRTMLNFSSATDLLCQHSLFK

HCT116 cells [2] = assay: Antiproliferative activity, CellTiter-Blue viability; format: cell-based; settings: for antiproliferative activity (in words): HCT116, 10 μM, 72 h; for IC50: Homo sapiens, HCT-116, 72 h, read-out: IC50 against HCT116
HeLa cells = assay: as above; format: cell-based; settings: 72 h; for antiproliferative activity (in words): 10 μM; for IC50: Homo sapiens, read-out: IC50 against HeLa
A375 cells = assay: as above; format: cell-based; settings: A375, 10 μM, 72 h
haspin kinase [3] = biological target: T1, haspin kinase; assay: Haspin dose-response
HCT116 and HeLa cells = HCT116 and HeLa cells ref 13; cited from earlier work
HCT116 cells [4] = assay: Cell cycle analysis, propidium iodide staining with flow cytometry; format: cell-based
[5] = test system: caspase 3/7 in HCT116 cells; assay: Caspase 3/7 fluorescence assay; settings: HCT116, after 72 hours, normalized to DMSO

| haspin inhibition (in words) (haspin kinase [1]) | SMILES | antiproliferative activity (in words) (HCT116 cells [2]) | antiproliferative activity (in words) (HeLa cells) | antiproliferative activity (in words) (A375 cells) | also measured |
| --- | --- | --- | --- | --- | --- |
| less active against haspin than HSD972 | Oc1ccc(-c2nc3ccc4[nH]ncc4c3c3c2CCCC3)cc1F [Compound 8, 2-Fluoro-4-(8,9,10,11-tetrahydro-3H-pyrazolo[4,3-a]phenanthridin-7-yl)phenol] |  |  |  |  |
| good haspin inhibitor | Oc1ccc(-c2nc3ccc4[nH]ncc4c3c3c2CCCC3)cc1 [Compound 1, 4-(8,9,10,11-Tetrahydro-3H-pyrazolo[4,3-a]phenanthridin-7-yl)phenol] | did not have good anticancer activities | did not have good anticancer activities | did not have good anticancer activities |  |
| poor haspin inhibitor | Oc1ccc(-c2nc3ccc4[nH]ncc4c3c3c2CCCC3)cn1 [Compound 12, 5-(8,9,10,11-Tetrahydro-3H-pyrazolo[4,3-a]phenanthridin-7-yl)pyridin-2-ol] | moderate antiproliferative activity | moderate antiproliferative activity | moderate antiproliferative activity |  |
| did not affect haspin inhibition | Nc1ccc(-c2nc3ccc4[nH]ncc4c3c3c2CCCC3)cn1 [Compound 17, 5-(8,9,10,11-Tetrahydro-3H-pyrazolo[4,3-a]phenanthridin-7-yl)pyridin-2-amine] |  |  |  | inhibition at 0.1 µM (haspin kinase [1]): > 90%; IC50 (haspin kinase [3]): 45 nM |
| potent inhibitors of haspin | Nc1ccc(-c2nc3ccc4[nH]ncc4c3c3c2CCCC3)cc1 [HSD929, 4-(8,9,10,11-Tetrahydro-3H-pyrazolo[4,3-a]phenanthridin-7-yl)aniline] | potent antiproliferative activities | potent antiproliferative activities |  | IC50 (HCT116 cells [2]): 1680 nM; IC50 (HeLa cells): 3600 nM; haspin inhibition (in words) (haspin kinase [1]; listed as 16): did not affect haspin inhibition; inhibition at 0.1 µM (haspin kinase [1]): > 90%; IC50 (haspin kinase [3]): 61 nM |

The remaining lines, values behind:

| SMILES | haspin inhibition (in words) (haspin kinase [1]) | antiproliferative activity (in words) (HCT116 cells [2]) | antiproliferative activity (in words) (HeLa cells) | antiproliferative activity (in words) (A375 cells) | also measured |
| --- | --- | --- | --- | --- | --- |
| Oc1ccc(-c2nc3ccc4[nH]ncc4c3c3c2CCCC3)c(F)c1F [Compound 21, 2,3-Difluoro-4-(8,9,10,11-tetrahydro-3H-pyrazolo[4,3-a]phenanthridin-7-yl)phenol] | decreased potency |  |  |  |  |
| Oc1cc(F)c(-c2nc3ccc4[nH]ncc4c3c3c2CCCC3)cc1F [Compound 10, 2,5-Difluoro-4-(8,9,10,11-tetrahydro-3H-pyrazolo[4,3-a]phenanthridin-7-yl)phenol] | decreased potency |  |  |  |  |
| Nc1ncc(-c2nc3ccc4[nH]ncc4c3c3c2CCCC3)cn1 [Compound 18, 5-(8,9,10,11-Tetrahydro-3H-pyrazolo[4,3-a]phenanthridin-7-yl)pyrimidin-2-amine] | slightly less active against haspin |  |  |  |  |
| Oc1ccc(-c2nc3ccc4cn[nH]c4c3c3c2CCCC3)cc1 [Compound 20, 4-(8,9,10,11-Tetrahydro-1H-pyrazolo[3,4-a]phenanthridin-7-yl)phenol] | not as active against haspin than compound 1 |  |  |  |  |
| Oc1ccc(-c2nc3c(ccc4cn[nH]c43)c3c2CCCC3)cc1 [Compound 19, 4-(6,7,8,9-Tetrahydro-3H-pyrazolo[4,3-c]phenanthridin-5-yl)phenol] | not as active against haspin than compound 1; also recorded: poor haspin inhibitors | performed poorly | performed poorly | performed poorly |  |
| CCCNc1ccc2ncc(-c3ccc4[nH]ncc4c3)n2n1 [CHR-6494] |  |  |  |  | apoptosis (in words) (HCT116 and HeLa cells): apoptosis; cell cycle arrest (in words) (HCT116 and HeLa cells): G2/M cell cycle arrest |
| N#Cc1n[nH]c2ccc3nc(-c4ccc(O)cc4)c4c(c3c12)CCCC4 [Compound 7, 7-(4-Hydroxyphenyl)-8,9,10,11-tetrahydro-3H-pyrazolo[4,3-a]phenanthridine-1-carbonitrile] | no inhibitory activity; also recorded: did not inhibit haspin; also recorded: poor haspin inhibitors | performed poorly | performed poorly | performed poorly |  |
| Oc1ccc(-c2nc3ccc4[nH]ncc4c3c3c2CCCC3)c(F)c1 [HSD972, 3-Fluoro-4-(8,9,10,11-tetrahydro-3H-pyrazolo[4,3-a]phenanthridin-7-yl)phenol] |  | potent antiproliferative activities | potent antiproliferative activities |  | IC50 (HCT116 cells [2]): 2700 nM; IC50 (HeLa cells): 4800 nM; cells in G2 phase (HCT116 cells [4]; HCT116, 13.5 μM (5X IC50), 24 h, DMSO 16.2%): 59.3%; effect on cell cycle distribution (in words) (HCT116 cells [4]; HCT116, 5X IC50, 24 h, compared to DMSO): population of cells in the G2/M phase was higher; caspase 3/7 activity (in words) [5]: increased the activity of caspase 3/7; inhibition at 0.1 µM (haspin kinase [1]): > 90% |
